The source of these data is patent US20260206809A1, “NATURAL SWEETENER COMPOSITIONS CONTAINING ALKYL LACTATES AND USES THEREOF” (Firmenich SA, priority 2022, published 2026).

Some results are limits rather than exact numbers.

The data set can be described thus: Solubility limit of the natural sweetener in pure solvents (estimated). Type of data set: physicochemical. The settings on record: for Solubility limit in ethyl lactate: pure ethyl lactate; for Solubility limit in glycerol: pure glycerol. The method, then: As used herein, “solubility at 25° C.” or “solubility at RT” is meant to represent the thermodynamic, equilibrium solubility of a natural sweetener at 25° C. or at RT. […] Subsequently, even once the temperature is brought back to a lower temperature, for example to 25° C., the solid compound may remain in solution for a certain amount of time while being supersaturated. However, this is an apparent solubility due to a non-equilibrium, metastable state with limited shelf-life stability, and therefore is distinguished from thermodynamic solubility at equilibrium. Thermodynamic solubility can, for example, be determined with the so-called shake flask method at a controlled temperature. Alternatively, it can be determined by slowly heating the compound and recording the solubilization temperature after complete dissolution.

In the case of `C=C1C[C@@]23CC[C@H]4[C@@](C)(CCC[C@@]4(C)C(=O)O[C@@H]4O[C@H](CO)[C@@H](O)[C@H](O)[C@H]4O)[C@@H]2CC[C@]1(O[C@@H]1O[C@H](CO)[C@@H](O)[C@H](O[C@@H]2O[C@H](CO)[C@@H](O)[C@H](O)[C@H]2O)[C@H]1O[C@@H]1O[C@H](CO)[C@@H](O)[C@H](O)[C@H]1O)C3` [Reb A (99.5%), Rebaudioside A], the “Solubility limit in ethyl lactate” value is listed as less than 0.3% and the “Solubility limit in glycerol” value is on record as “about 2 % wt”.

As to `C=C1C[C@@]23CC[C@H]4[C@@](C)(CCC[C@@]4(C)C(=O)O[C@@H]4O[C@H](CO)[C@@H](O)[C@H](O[C@@H]5O[C@H](CO)[C@@H](O)[C@H](O)[C@H]5O)[C@H]4O[C@@H]4O[C@H](CO)[C@@H](O)[C@H](O)[C@H]4O)[C@@H]2CC[C@]1(O[C@@H]1O[C@H](CO)[C@@H](O)[C@H](O[C@@H]2O[C@H](CO)[C@@H](O)[C@H](O)[C@H]2O)[C@H]1O[C@@H]1O[C@H](CO)[C@@H](O)[C@H](O)[C@H]1O)C3` [Reb M (95%), Rebaudioside M], the “Solubility limit in ethyl lactate” value is less than 0.7% and the “Solubility limit in glycerol” value was “about 9 % wt”.

For Rebaudioside B [Reb B (95%)], the “Solubility limit in ethyl lactate” value is on record as less than 1% and the “Solubility limit in glycerol” value was “about 16 % wt”.
